Tested on: CD4+ T cells
Assay: IFN-γ ELISPOT of CD4+ T cells presensitized with overlapping NY-ESO-1 18 mer peptides
Type: cell-based, human
Settings: for Patient T cells 1 / Patient T cells 2 / Patient T cells 3: IFN-γ ELISPOT; for Patient T cells 1: day 12, CD4+ T cells of patient 1, autologous peptide pulsed EBV-B cells as targets; for Patient T cells 2: day 12, CD4+ T cells of patient 2, autologous peptide pulsed EBV-B cells as targets; for Patient T cells 3: day 12, CD4+ T cells of patient 3, autologous peptide pulsed EBV-B cells as targets; for patients whose CD4+ T cells recognized the peptide: three patients tested
Method: Peripheral blood mono-nuclear cells (“PBMCs”) were separated from heparinized blood via Ficoll density gradient separation, using standard, art recognized techniques. Once this was done, the CD4^+ and CD8^+ T cells were separated from each other using magnetic cell sorting techniques which are well known to the art, producing CD4^+, CD8^+, and CD4^−/CD8^− cell populations.
A series of 18 mer peptides were prepared from the amino acid sequence of NY-ESO-1 as set forth in, e.g., U.S. Pat. No. 5,804,381, incorporated by reference. The peptides were designed to cover the entire sequence of NY-ESO-1, and to provide overlap.
The peptides were then individually pulsed to antigen presenting cells (“APCs”). These were CD4^−/CD8^− PBMCs taken from the same subjects who had provided the CD4^+ and CD8^+ cells. These APCs were irradiated with 3000 rads, and then pulsed with one of the peptides, at a concentration of 10 μg/ml, for 1 hour, in serum free medium. These APCs were then washed, and added to the CD4^+ cells. In the pulsing experiments, the peptides were solubilized in DMSO (100%) and then diluted with PBS to a final concentration of 10% DMSO. The CD4^+ cells had been cultured in a medium of L-arginine (242 mg/l), L-asparagene (50 mg/l), L-glutamine (300 mg/l), penicillin (10 IU/ml), streptomycin (100 μg/ml), 1% non-essential amino acids, 10% HS, and 10 ng/ml of recombinant human IL-2.
The CD4^+ T cells were restimulated weekly with 1 μg/ml of the peptide being used. On day 12, each CD4^+ culture was assayed for NY-ESO-1 peptide recognition, using the ELISPOT assay of lager, et al., Proc. Natl. Acad. Sci. USA, 97(9):4760-4765 (2000), incorporated by reference. To elaborate on this procedure, flat-bottomed, 96-well nitrocellulose plates were coated with 5 μg/ml of anti-interferon-gamma antibody and incubated overnight at 4° C. After washing with PBS, plates were blocked with 10% human serum (HS) for 1 hour at 37° C. Depending on the effector:target ratio used, various numbers of presensitized CD4^+ T-cells were added to each well along with 5×10^4 autologous peptide pulsed EBV transfected B cells (“EBV-B cells”) serving as target cells and incubated for 16 hours at 37° C. in TCM without IL-2. Plates were then washed extensively (6 times with a solution of 0.05% Tween 20/PBS), and biotinylated anti-interferon-gamma detection antibody was added at a concentration of 0.5 μg/ml. After incubation for 2 h at 37° C., plates were washed and incubated with ABC-AP Vectastain for 1 hour. Plates were washed again and developed with substrate (BCIP/NPT) until blue spots were visible. The number of blue spots/well represented the proportion of NY-ESO-1 specific CD4^+ T-cells/well was finally counted under the microscope.
The EBV-B-cells were generated from each patients' PBMC following standard methods and maintained in RPMI 1640 medium supplemented with 10 mM Hepes buffer, L-arginine (242 mg/l), L-asparagine (50mg/l), L-glutamine (300 mg/l), penicillin (10 IU/ml), streptomycin (100 μg/ml), 1% non-essential amino acids, and 10% FCS. […] PBMC's or EBV-B-cells were molecularly typed for HLA expression using standard procedures.

“P43-60: synthetic 18 mer peptide, amino acids 43-60 of NY-ESO-1 (RGPRGAGAARASGPGGGA; UniProt P78358 43-60, looked up, fragment) [Peptide P43-60]” was tested, and the “Patient T cells 1” value was “− (− indicates <50 spots)”, the “Patient T cells 2” value was “+ (+ indicates >50 spots (all + scores indicated were >100 spots))” and the “Patient T cells 3” value was “− (− indicates <50 spots)”. The “patients whose CD4+ T cells recognized the peptide” value was “one patient”.
“p97-114: synthetic 18 mer peptide, amino acids 97-114 of NY-ESO-1 (ATPMEAELARRSLAQDAP; UniProt P78358 97-114, looked up, fragment)” was tested, and the “Patient T cells 1” value was “− (− indicates <50 spots)”, the “Patient T cells 2” value was “+ (+ indicates >50 spots (all + scores indicated were >100 spots))” and the “Patient T cells 3” value was “− (− indicates <50 spots)”. The “patients whose CD4+ T cells recognized the peptide” value was “one patient”.
“p7-24: synthetic 18 mer peptide, amino acids 7-24 of NY-ESO-1 (GTGGSTGDADGPGGPGIP; UniProt P78358 7-24, looked up, fragment)” was tested, and the “Patient T cells 1” value was “− (− indicates <50 spots)”, the “Patient T cells 2” value was “− (− indicates <50 spots)” and the “Patient T cells 3” value was “− (− indicates <50 spots)”.
For “p91-108: synthetic 18 mer peptide, amino acids 91-108 of NY-ESO-1 (YLAMPFATPMEAELARRS; UniProt P78358 91-108, looked up, fragment)”, the “Patient T cells 1” value was “− (− indicates <50 spots)”, the “Patient T cells 2” value was “− (− indicates <50 spots)” and the “Patient T cells 3” value was “− (− indicates <50 spots)”.
“p151-168: synthetic 18 mer peptide, amino acids 151-168 of NY-ESO-1 (SCLQQLSLLMWITQCFLP; UniProt P78358 151-168, looked up, fragment)” was tested, and the “Patient T cells 1” value was “− (− indicates <50 spots)”, the “Patient T cells 2” value was “− (− indicates <50 spots)” and the “Patient T cells 3” value was “− (− indicates <50 spots)”.
With “p139-156: synthetic 18 mer peptide, amino acids 139-156 of NY-ESO-1 (AADHRQLQLSISSCLQQL; UniProt P78358 139-156, looked up, fragment)” the “Patient T cells 1” value was “− (− indicates <50 spots)”, the “Patient T cells 2” value was “− (− indicates <50 spots)” and the “Patient T cells 3” value was “− (− indicates <50 spots)”.
In the case of “p157-174: synthetic 18 mer peptide, amino acids 157-174 of NY-ESO-1 (SLLMWITQCFLPVFLAQP; UniProt P78358 157-174, looked up, fragment)”, the “Patient T cells 1” value is reported as “− (− indicates <50 spots)”, the “Patient T cells 2” value is reported as “− (− indicates <50 spots)” and the “Patient T cells 3” value is reported as “− (− indicates <50 spots)”.
“p85-102: synthetic 18 mer peptide, amino acids 85-102 of NY-ESO-1 (SRLLEFYLAMPFATPMEA; UniProt P78358 85-102, looked up, fragment)” was tested, and the “Patient T cells 1” value was “− (− indicates <50 spots)”, the “Patient T cells 2” value was “− (− indicates <50 spots)” and the “Patient T cells 3” value was “− (− indicates <50 spots)”.
With “p145-162: synthetic 18 mer peptide, amino acids 145-162 of NY-ESO-1 (LQLSISSCLQQLSLLMWI; UniProt P78358 145-162, looked up, fragment)” the “Patient T cells 1” value was “− (− indicates <50 spots)”, the “Patient T cells 2” value was “− (− indicates <50 spots)” and the “Patient T cells 3” value was “− (− indicates <50 spots)”.
In the case of “P31-48: synthetic 18 mer peptide, amino acids 31-48 of NY-ESO-1 (AGGPGEAGATGGRGPRGA; UniProt P78358 31-48, looked up, fragment) [Peptide P31-48]”, the “Patient T cells 1” value is reported as “− (− indicates <50 spots)”, the “Patient T cells 2” value is reported as “− (− indicates <50 spots)” and the “Patient T cells 3” value is reported as “− (− indicates <50 spots)”.
For “p1-18: synthetic 18 mer peptide, amino acids 1-18 of NY-ESO-1 (MQAEGRGTGGSTGDADGP; UniProt P78358 1-18, looked up, fragment)”, the “Patient T cells 1” value was “− (− indicates <50 spots)”, the “Patient T cells 2” value was “− (− indicates <50 spots)” and the “Patient T cells 3” value was “− (− indicates <50 spots)”.
For “p133-150: synthetic 18 mer peptide, amino acids 133-150 of NY-ESO-1 (LTIRLTAADHRQLQLSIS; UniProt P78358 133-150, looked up, fragment)”, the “Patient T cells 1” value was “− (− indicates <50 spots)”, the “Patient T cells 2” value was “− (− indicates <50 spots)” and the “Patient T cells 3” value was “− (− indicates <50 spots)”.
For “P19-36: synthetic 18 mer peptide, amino acids 19-36 of NY-ESO-1 (GGPGIPDGPGGNAGGPGE; UniProt P78358 19-36, looked up, fragment) [Peptide P19-36]”, the “Patient T cells 1” value was “− (− indicates <50 spots)”, the “Patient T cells 2” value was “− (− indicates <50 spots)” and the “Patient T cells 3” value was “− (− indicates <50 spots)”.
For “P37-54: synthetic 18 mer peptide, amino acids 37-54 of NY-ESO-1 (AGATGGRGPRGAGAARAS; UniProt P78358 37-54, looked up, fragment) [Peptide P37-54]”, the “Patient T cells 1” value was “− (− indicates <50 spots)”, the “Patient T cells 2” value was “− (− indicates <50 spots)” and the “Patient T cells 3” value was “− (− indicates <50 spots)”.
In the case of “P79-96: synthetic 18 mer peptide, amino acids 79-96 of NY-ESO-1 (GARGPESRLLEFYLAMPF; UniProt P78358 79-96, looked up, fragment) [Peptide P79-96]”, the “Patient T cells 1” value is reported as “− (− indicates <50 spots)”, the “Patient T cells 2” value is reported as “− (− indicates <50 spots)” and the “Patient T cells 3” value is reported as “− (− indicates <50 spots)”.
With “P67-84: synthetic 18 mer peptide, amino acids 67-84 of NY-ESO-1 (GAASGLNGCCRCGARGPE; UniProt P78358 67-84, looked up, fragment) [Peptide P67-84]” the “Patient T cells 1” value was “− (− indicates <50 spots)”, the “Patient T cells 2” value was “− (− indicates <50 spots)” and the “Patient T cells 3” value was “− (− indicates <50 spots)”.
In the case of “p103-120: synthetic 18 mer peptide, amino acids 103-120 of NY-ESO-1 (ELARRSLAQDAPPLPVPG; UniProt P78358 103-120, looked up, fragment)”, the “Patient T cells 1” value is reported as “− (− indicates <50 spots)”, the “Patient T cells 2” value is reported as “+ (+ indicates >50 spots (all + scores indicated were >100 spots))” and the “Patient T cells 3” value is reported as “− (− indicates <50 spots)”. The “patients whose CD4+ T cells recognized the peptide” value was “one patient”.
With “p115-132: synthetic 18 mer peptide, amino acids 115-132 of NY-ESO-1 (PLPVPGVLLKEFTVSGNI; UniProt P78358 115-132, looked up, fragment)” the “Patient T cells 1” value was “− (− indicates <50 spots)”, the “Patient T cells 2” value was “− (− indicates <50 spots)” and the “Patient T cells 3” value was “− (− indicates <50 spots)”.
For “p163-180: synthetic 18 mer peptide, amino acids 163-180 of NY-ESO-1 (TQCFLPVFLAQPPSGQRR; UniProt P78358 163-180, looked up, fragment)”, the “Patient T cells 1” value was “− (− indicates <50 spots)”, the “Patient T cells 2” value was “− (− indicates <50 spots)” and the “Patient T cells 3” value was “− (− indicates <50 spots)”.
“P13-30: synthetic 18 mer peptide, amino acids 13-30 of NY-ESO-1 (GDADGPGGPGIPDGPGGN; UniProt P78358 13-30, looked up, fragment) [Peptide P13-30]” was tested, and the “Patient T cells 1” value was “− (− indicates <50 spots)”, the “Patient T cells 2” value was “− (− indicates <50 spots)” and the “Patient T cells 3” value was “− (− indicates <50 spots)”.
With “P25-42: synthetic 18 mer peptide, amino acids 25-42 of NY-ESO-1 (DGPGGNAGGPGEAGATGG; UniProt P78358 25-42, looked up, fragment) [Peptide P25-42]” the “Patient T cells 1” value was “− (− indicates <50 spots)”, the “Patient T cells 2” value was “− (− indicates <50 spots)” and the “Patient T cells 3” value was “− (− indicates <50 spots)”.

Source: patent US7632506B2, “Identification of new NY-ESO-1 epitopes recognized by CD4+ T-cells” (Ludwig Institute for Cancer Research, priority 2005, dated 2009)
